Assay results: patent US5130327A, “Indole derivatives” (Consejo Superior de Investigaciones Cientificas, priority 1989, dated 1992)

Assays:
Bovine Brain MAO A = biological target: T1, Bovine Brain MAO A (Bos taurus, UniProt P21398); assay: In vitro inhibition of MAO from bovine brain mitochondria, tyramine as substrate (form A); type: biochemical; conditions: pI50 = -log [I50], molar
T1 construct: in vitro activity of MAO from bovine brain mitochondria; from tissue; host or cells: bovine brain mitochondria
T1 sequence (P21398 1-527): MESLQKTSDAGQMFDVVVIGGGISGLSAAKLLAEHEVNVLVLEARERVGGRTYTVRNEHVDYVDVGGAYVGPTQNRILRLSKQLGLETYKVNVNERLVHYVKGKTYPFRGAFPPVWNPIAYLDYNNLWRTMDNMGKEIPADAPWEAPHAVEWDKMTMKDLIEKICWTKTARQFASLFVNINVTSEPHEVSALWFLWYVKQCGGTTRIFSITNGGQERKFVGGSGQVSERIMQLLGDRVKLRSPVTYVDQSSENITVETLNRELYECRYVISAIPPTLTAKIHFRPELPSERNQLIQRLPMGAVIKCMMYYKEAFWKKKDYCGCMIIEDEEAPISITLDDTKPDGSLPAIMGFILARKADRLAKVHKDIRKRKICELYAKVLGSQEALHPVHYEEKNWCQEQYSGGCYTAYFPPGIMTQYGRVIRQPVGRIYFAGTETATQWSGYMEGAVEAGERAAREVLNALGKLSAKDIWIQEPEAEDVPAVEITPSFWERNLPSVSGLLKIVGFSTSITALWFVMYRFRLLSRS
Description: (§1) The following table illustrates the structure of particular compounds of the invention (1). It also gives specific pI50 values where pI50 =-log [I50 ] where [I50 ] is the molar concentration of test compound which inhibits 50% of the in vitro activity of MAO from bovine brain mitochondria using tyramine as substrate.

Bovine Brain MAO B = biological target: T2, Bovine Brain MAO B (Bos taurus, UniProt P56560); assay: In vitro inhibition of MAO from bovine brain mitochondria, tyramine as substrate (form B); type: biochemical; design: key to Bovine Brain MAO, mark printed in place of a B value (nonselective): ns = nonselective; conditions: for IC50: pI50 = -log [I50], molar, bovine brain mitochondria, tyramine as substrate; for Bovine Brain MAO, mark printed in place of a B value (nonselective): one pI50 given, no separate A and B values
T2 construct: in vitro activity of MAO from bovine brain mitochondria; from tissue; host or cells: bovine brain mitochondria
T2 sequence (P56560 1-520): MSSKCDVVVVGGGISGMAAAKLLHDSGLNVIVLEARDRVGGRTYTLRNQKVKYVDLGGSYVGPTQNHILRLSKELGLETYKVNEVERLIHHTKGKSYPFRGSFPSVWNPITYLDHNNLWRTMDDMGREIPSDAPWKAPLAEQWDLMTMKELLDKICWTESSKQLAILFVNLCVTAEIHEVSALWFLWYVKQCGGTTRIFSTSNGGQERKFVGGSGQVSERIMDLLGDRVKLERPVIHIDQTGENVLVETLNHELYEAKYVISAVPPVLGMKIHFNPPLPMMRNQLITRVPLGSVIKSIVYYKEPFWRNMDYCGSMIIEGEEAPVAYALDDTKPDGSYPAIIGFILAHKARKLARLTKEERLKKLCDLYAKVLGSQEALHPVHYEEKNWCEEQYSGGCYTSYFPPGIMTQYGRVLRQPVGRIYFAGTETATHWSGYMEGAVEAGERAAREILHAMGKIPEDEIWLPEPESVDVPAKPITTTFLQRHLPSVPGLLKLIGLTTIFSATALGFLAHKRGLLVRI
Description: as §1

[1] = Interaction with clonidine-induced hypoactivity; type: in vivo
Description: (§2) The action mechanism was studied in acute and chronic treatments on the interaction response with clonidine, salbutamol (Richard, J. Intern. J. Neuroscience, 9:17-19, 1979) and tetrabenazine (Pletscher, A.: An. N.Y. Aca. Sci. 80:1039-1045, 1959), and the response to the potentiation with L-dopa, L-tryptophan, tryptamine (Jalfre, M. et al., Arch. Int. Pharmacodyn, 159:194-221, 1982) and β-phenylethylamine (Ortmann, et al, Psychopharmacol. 84:22-27, 1984).

[2] = tested on: reuptake of noradrenaline; assay: Reuptake of noradrenaline in vitro, crude synaptosomal preparation; type: biochemical, rat
Protocol: Influence on the reuptake of monoamines "in vitro" was also studied. The effect of the compounds on the reuptake of 5-HT noradrenaline and dopamine was studied using Wistar male rats (350±2.5 g). They were kept under controlled light and temperature conditions and fed "ad libitum" until killed. The animals were killed by decapitation and brains were frozen and stored at -20° C. prior to analysis. Brains were dissected on an ice-filled petri dish. The cortices for 5-HT and noradrenaline assay and striatum (including caudate nucleus, putamen and globus pallidus) for dopamine assay were immediately weighed and homogenized. The standard incubation medium contained: 1.7 μM ^14 C-5-HT); 0.5μM ^3 H-noradrenaline or 1 μM ^3 H-dopamine with 0.1 ml of the crude synaptosomal preparation. All drugs used in the study were dissolved in the incubation medium in a concentration range 10^-4 to 10^-8 M and were preincubated with the crude synaptosomal preparation obtained from the treated brains, for 5 min. at 37° C. or 0° C. before the addition of the labelled substrate.

[3] = Potentiation of β-phenylethylamine; type: in vivo; conditions: in vivo
Description: as §2

rat cerebral MAO A and B = assay: MAO inhibitory activity at the biochemical level (reversibility and selectivity)
Description: To determine MAO inhibitory activity at the biochemical level the following tests are used:
1. "In vitro inhibition" of rat cerebral MAO A and B giving I50 values for the two forms of the enzyme. Male Wistar rats (200 g) were used. Brains were obtained by decapitation and were homogenized. As substrates of the enzymes ^14 C-5-hydroxytryptamine oxalate 54 mCi/mmol and ^14 C-β-phenylethylamine were used. The residual enzymatic activities were referred to the activities in absence of MAO inhibitor (100%).
2. "Ex vivo inhibition" of rat cerebral MAO A and B after single dosing.
This gives the degree of inhibition in vivo of both forms of the enzyme and variation of this inhibition with time after treatment with a single dose. The compounds were administered intraperitoneally to male Wistar rats (175 g.) at a dose of 5 mg/kg in 1 ml/kg (H2 O). Animals were sacrificed by decapitation 24 h. and 7 days after treatment and brains were removed and homogenized. Enzymatic activities determined in treated animals, were compared with the activities in control animals (100%).
3. "Ex vivo" inhibition of rat cerebral MAO A and B after repeated dosing.
Male Wistar rats (175 g) were used.
The compounds were administered once daily intraperitonally for 7 days at a dose of 0.5 and 1 mg/kg in 1 ml/kg […]. […]

[4] = tested on: cerebral β-adrenergic receptors; assay: Effects of chronic treatment on β receptors; type: in vivo; conditions: chronic administration in the rat
Protocol: Effects of chronic treatment on α2 -, β- and 5-HT2 receptors. The test compounds, at a dose of 10 mg/kg/day i.p., were administered for 21 days to Wistar male rats (250±2.4 g). After treatment the animals were killed, brains were dissected and cortices were scraped from the dorsal surface of the […]. ^3 H UK 14304, ^3 H Dihydroalprenalol and ^3 H Ketanserin were used as ligands in the binding studies.

[5] = Secondary effects on the cardiovascular system; conditions: in vivo
Protocol: (§3) The secondary effects were studied mainly on the cardiovascular system, and the effects on the arterial pressure, heart rate and rhythm, P-R interval and isolated organ (rabbit aortic rings and isolated atria), were evaluated both after acute and chronic treatments. In the same way, the "cheese effect" was studied by means of the tyramine potentiation.

[6] = Interaction with salbutamol-induced hypoactivity; type: in vivo
Description: as §2

Potentiation of 5-HT = type: in vivo; conditions: in vivo
[7] = Behavioural Despair (Porsolt's test); type: in vivo; conditions: acute treatment; read-out: Porsolt's test MED, acute
Protocol: The pharmacological profile was carried out assessing the antidepressant activity with the following tests:
Behavioural Despair (Porsolt et al. Arch. Int. Pharmacodyn; 229:327-336, 1977),

[8] = "Cheese effect" by tyramine potentiation; conditions: in vivo
Protocol: as §3

rat uterus = conditions: Arch. Int. Pharmacodyn. 1961, 133, 138-158; cited from earlier work

Compound | IC50 (Bovine Brain MAO A) [nM] | IC50 (Bovine Brain MAO B) [nM] | Bovine Brain MAO, mark printed in place of a B value (nonselective) (Bovine Brain MAO B) | also measured
C#CCNCc1cc2cc(OC)ccc2[nH]1 [(a), N-propargyl-2-(5-methoxy-indolyl)methylamine] | 219 | 110000 | – | –
C#CCN(C)Cc1cc2cc(OC)ccc2[nH]1 [(c), N-methyl-N-propargyl-2-(5-methoxy-indolyl)methylamine] | 7.08 | 447 | – | –
CC#CCNCc1cc2cc(OC)ccc2[nH]1 [(d), N-(2-butynyl)-2-(5-methoxy-indolyl)methylamine] | 631 | > 331000 | – | –
CC#CCN(CC#CC)Cc1cc2cc(OC)ccc2[nH]1 [(e), N,N-bis(2-butynyl)-2-(5-methoxy-indolyl)methylamine] | ≥ 20000 | > 20000 | – | –
CC#CCN(C)Cc1cc2cc(OC)ccc2[nH]1 [(f), N-(2-butynyl)-N-methyl-2-(5-methoxy-indolyl)methylamine] | 8.91 | 12900 | – | –
C=C=CCNCc1cc2cc(OC)ccc2[nH]1 [(g), N-(2,3-butadienyl)-2-(5-methoxy-indolyl)methylamine] | 44.7 | 2510 | – | –
C=C=CCN(CC=C=C)Cc1cc2cc(OC)ccc2[nH]1 [(h), N,N-bis(2,3-butadienyl)-2-(5-methoxy-indolyl)methylamine] | 447 | – | ns | –
C=C=CCN(C)Cc1cc2cc(OC)ccc2[nH]1 [(i), N-(2,3-butadienyl)-N-methyl-2-(5-methoxy-indolyl)methylamine] | 17.8 | 5010 | – | –
C#CCNCc1cc2cc(OC)ccc2n1C [(j), N-propargyl-2-(1-methyl-5-methoxy-indolyl)methylamine] | 20.9 | 44700 | – | –
C#CCN(CC#C)Cc1cc2cc(OC)ccc2n1C [(k), N,N-bis(propargyl)-2-(1-methyl-5-methoxy-indolyl)methylamine] | 2820 | – | ns | –
CC#CCNCc1cc2cc(OC)ccc2n1C [(m), N-(2-butynyl)-2-(1-methyl-5-methoxy-indolyl)methylamine] | 129 | 79400 | – | –
CC#CCN(CC#CC)Cc1cc2cc(OC)ccc2n1C [(n), N,N-bis(2-butynyl)-2-(1-methyl-5-methoxy-indolyl)methylamine] | 3980 | > 501000 | – | –
CC#CCN(C)Cc1cc2cc(OC)ccc2n1C [(o), N-(2-butynyl)-N-methyl-2-(1-methyl-5-methoxy-indolyl)methylamine] | 35.5 | – | ns | –
C=C=CCNCc1cc2cc(OC)ccc2n1C [(p), N-(2,3-butadienyl)-2-(1-methyl-5-methoxy-indolyl)methylamine] | 21.9 | 398 | – | –
C=C=CCN(CC=C=C)Cc1cc2cc(OC)ccc2n1C [(q), N,N-bis(2,3-butadienyl)-2-(1-methyl-5-methoxy-indolyl)methylamine] | 302 | – | ns | –
C=C=CCN(C)Cc1cc2cc(OC)ccc2n1C [(r), N-(2,3-butadienyl)-N-methyl-2-(1-methyl-5-methoxy-indolyl)-methylamine] | 5.37 | 501 | – | –
COc1ccc2[nH]c(CN)cc2c1 [(s), 2-(5-methoxy-indolyl)methylamine] | 50100 | – | ns | Clonidine-induced hypoactivity, acute ([1]; acute (10.2 mg/kg)): no action; Clonidine-induced hypoactivity, chronic ([1]; chronic treatment (10.2 mg/kg) during 5 days): no action; Effect on the reuptake of noradrenaline [2]: does not affect; Activity in test of potentiation of β-phenylethylamine [3]: inactive; Type of MAO inhibition (reversibility, selectivity) (rat cerebral MAO A and B): reversible and mixed inhibitor of MAO; Number or affinity of cerebral β-adrenergic receptors [4]: does not modify; Cardiovascular effects [5]: does not produce any significant cardiovascular effects; Hypoactivity induced by salbutamol, acute ([6]; acute treatment): does not do so; Hypoactivity induced by salbutamol, chronic ([6]; chronic treatment (10.2 mg/kg)): counteracts; Activity in test of potentiation of 5-HT (Potentiation of 5-HT): inactive; minimal effective dose [7]: 25 mg/kg; "Cheese effect" [8]: no "cheese effect"
CNCc1cc2cc(OC)ccc2[nH]1 [(t), N-methyl-2-(5-methoxy-indolyl)methylamine] | ≥ 100000 | > 100000 | – | Antagonistic activity on the rat uterus (rat uterus): a weak unspecific antagonistic activity
COc1ccc2c(c1)cc(CN)n2C [(u), 2-(1-methyl-5-methoxy-indolyl)methylamine] | 18200 | – | ns | –
CNCc1cc2cc(OC)ccc2n1C [(v), N-methyl-2-(1-methyl-5-methoxy-indolyl)methylamine] | 129000 | – | ns | –
